Columns and labels:
GHSR1a [1] = target: T1, GHSR1a (Homo sapiens, UniProt Q92847); assay: Calcium FLIPR assay, GHSR-1a antagonism (reduction of ghrelin response); format: cell-based; conditions: HEK293/GHSR1a cells, ghrelin 10 nM
T1 construct: expressed in transfected cells; host or cells: HEK293
In short: (§1)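 Calcium dye-loaded HEK293/GHSR1a cells were monitored by FLIPR fluorescence for 2 min after additions at t=20 s. For antagonist mode, compound was co-added with ghrelin (10 nM) and scored by lowering the ghrelin signal. Agonist mode added compound alone; EC50 and IC50 came from dose-response data.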

[2] = Metabolic Stability (H = Human); format: in vitro ADME
GHSR1a [3] = target: T1, GHSR1a; assay: Calcium FLIPR assay, GHSR-1a agonism; format: cell-based; parameters: Emax: unit not given here; conditions: HEK293/GHSR1a cells
In short: as §1

C57BL/6J mice = assay: Food intake test in mouse (GHSR1a antagonists); format: in vivo; conditions: for inhibition in vivo at 10 mg/kg / inhibition in vivo at 30 mg/kg: Mus musculus
Experimental: Male C57BL/6J mice, 18-22 g body weight, were fasted overnight (16 h before compound administration) and placed in a regular light dark cycle (6:00-18:00 light/18:00-6:00 dark). After 1 wk acclimation, animals were sorted into two groups (n=6 each, 2 per cage) based on body weight. Animals in group one were be treated with vehicle and animals in group 2 were treated with the test agent (n=6 for each group). The cumulative food intake was evaluated at 1, 2, 4, 8 and 24 hrs after drug or vehicle treatment. Food intake was measured by subtracting uneaten food from the initial premeasured food.

[4] = Metabolic Stability (M = Mouse); format: in vitro ADME

T1 sequence (Q92847 whole entry): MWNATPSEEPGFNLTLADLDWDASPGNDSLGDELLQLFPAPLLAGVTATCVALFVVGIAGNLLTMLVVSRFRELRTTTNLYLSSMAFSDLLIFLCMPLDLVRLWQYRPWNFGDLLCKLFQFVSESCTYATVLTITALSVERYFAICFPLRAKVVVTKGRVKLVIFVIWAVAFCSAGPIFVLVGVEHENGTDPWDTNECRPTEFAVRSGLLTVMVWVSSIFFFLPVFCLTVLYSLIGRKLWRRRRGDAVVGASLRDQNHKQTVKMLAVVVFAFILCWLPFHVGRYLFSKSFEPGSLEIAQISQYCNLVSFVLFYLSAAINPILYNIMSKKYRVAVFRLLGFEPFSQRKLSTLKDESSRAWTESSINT

IC50 (GHSR1a [1]) | Metabolic Stability H [2] | EC50 (GHSR1a [3]) | Emax (GHSR1a [3]) | Metabolic Stability M [4] | Structure (SMILES) | inhibition in vivo at 10 mg/kg (C57BL/6J mice; ip, 1 h, i.p. 10 mg/kg) | also measured
12 nM | Medium H Medium M | > 30000 nM | – | Medium H Medium M | CC(NC(=O)N(C)C1CCN(C)CC1)c1ccc(-c2cn[nH]c2)c(Cl)c1Cl (stereo not shown) [Compound H0499, 3-(1-(2,3-dichloro-4-(1H-pyrazol-4-yl)phenyl)ethyl)-1-methyl-1-(1-methylpiperidin-4-yl)urea] | – | Mouse Food Intake, result in words (C57BL/6J mice; i.p. 30 mg/kg): NSE (30 mg/kg)
48 nM | Medium H Medium M | > 30000 nM | – | Medium H Medium M | Cc1cncc(-c2ccc(C(C)NC(=O)N(C)C3CCN(C)CC3)c(Cl)c2Cl)c1 (stereo not shown) [Compound H0639, 3-(1-(2,3-dichloro-4-(5-methylpyridin-3-yl)phenyl)ethyl)-1-methyl-1-(1-methylpiperidin-4-yl)urea] | – | Mouse Food Intake, result in words (C57BL/6J mice; i.p. 10 mg/kg): NSE (10 mg/kg)
29 nM | High H High M | 2000 nM | 1790 | High H High M | CC(NC(=O)N(C)C1CCN(C)CC1)c1ccc(-c2ccccc2)c(Cl)c1Cl (stereo not shown) [Compound H0509, 3-(1-(2,3-dichloro-[1,1′-biphenyl]-4-yl)ethyl)-1-methyl-1-(1-methylpiperidin-4-yl)urea] | 66% | –
18 nM | High H High M | 64 nM | 1400 | High H High M | COc1ncc(-c2ccc(C(C)NC(=O)N(C)C3CCN(C)CC3)c(Cl)c2Cl)cn1 (stereo not shown) [Compound H0649, 3-(1-(2,3-dichloro-4-(2-methoxypyrimidin-5-yl)phenyl)ethyl)-1-methyl-1-(1-methylpiperidin-4-yl)urea] | 48% | inhibition in vivo at 10 mg/kg (C57BL/6J mice; ip, 2 h, i.p. 10 mg/kg): 48%
3 nM | Medium H Medium M | > 30000 nM | – | Medium H Medium M | CC(NC(=O)N(C)C1CCN(C)CC1)c1ccc(-c2cccs2)c(Cl)c1Cl (stereo not shown) [Compound H0536, 3-(1-(2,3-dichloro-4-(thiophen-2-yl)phenyl)ethyl)-1-methyl-1-(1-methylpiperidin-4-yl)urea] | – | inhibition in vivo at 30 mg/kg (C57BL/6J mice; ip, 1 h, i.p. 30 mg/kg): 76%
14 nM | High H High M | > 30000 nM | – | High H High M | CC(NC(=O)N(C)C1CCN(C)CC1)c1ccc(-c2cccc(N)c2)c(Cl)c1Cl (stereo not shown) [Compound H0510, 3-(1-(3′-amino-2,3-dichloro-[1,1′-biphenyl]-4-yl)ethyl)-1-methyl-1-(1-methylpiperidin-4-yl)urea] | – | inhibition in vivo at 30 mg/kg (C57BL/6J mice; ip, 4 h, i.p. 30 mg/kg): 35%
20 nM | High H High M | > 30000 nM | – | High H High M | CC(NC(=O)N(C)C1CCN(C)CC1)c1ccc(-c2cncc(C#N)c2)c(Cl)c1Cl (stereo not shown) [Compound H0613, 3-(1-(2,3-dichloro-4-(5-cyanopyridin-3-yl)phenyl)ethyl)-1-methyl-1-(1-methylpiperidin-4-yl)urea] | – | Mouse Food Intake, result in words (C57BL/6J mice; IP + ANAM 30 mpk PO, at 1 h): inhibition; Mouse Food Intake, result in words (C57BL/6J mice; PO, dose not given): inhibition at 1 h; Mouse Food Intake, result in words (C57BL/6J mice; i.p. 10 mg/kg): NSE

Further lines, the molecule ahead of its results:

Structure (SMILES) | IC50 (GHSR1a [1]) | Metabolic Stability H [2] | EC50 (GHSR1a [3]) | Emax (GHSR1a [3]) | Metabolic Stability M [4] | inhibition in vivo at 10 mg/kg (C57BL/6J mice; ip, 1 h, i.p. 10 mg/kg) | also measured
CC(NC(=O)N(O)C1CCN(C)CC1)c1ccc(-c2cncc(C#N)c2)c(Cl)c1Cl (stereo not shown) [Compound H0667, 3-(1-(2,3-dichloro-4-(5-cyanopyridin-3-yl)phenyl)ethyl)-1-hydroxy-1-(1-methylpiperidin-4-yl)urea] | < 1 nM | High H High M | 3 nM | 4887 | High H High M | 76% | –
CC(NC(=O)N(C)C1CCN(C)CC1)c1ccc(Br)c2ccccc12 (stereo not shown) [Compound H0573, 3-(1-(4-bromonaphthalen-1-yl)ethyl)-1-methyl-1-(1-methylpiperidin-4-yl)urea] | 36 nM | High | > 30000 nM | – | Medium | – | Mouse Food Intake, result in words (C57BL/6J mice; PO 30 mg/kg): PO: NSE (30 mg/kg)
CC(NC(=O)N(C)C1CCN(C)CC1)c1ccc(C#Cc2ccsc2)c(Cl)c1Cl (stereo not shown) [Compound H0759, 3-(1-(2,3-dichloro-4-(thiophen-3-ylethynyl)phenyl)ethyl)-1-methyl-1-(1-methylpiperidin-4-yl)urea] | 7 nM | High H High M | > 30000 nM | – | High H High M | 85% | Mouse Food Intake, result in words (C57BL/6J mice; PO, dose not given): no effect
CC(NC(=O)N(C)C1CCN(C)CC1)c1ccc(C#CC2CC2)c(Cl)c1Cl (stereo not shown) [Compound H0764, 3-(1-(2,3-dichloro-4-(cyclopropylethynyl)phenyl)ethyl)-1-methyl-1-(1-methylpiperidin-4-yl)urea] | 10 nM | High H High M | 14 nM | 1352 | High H High M | 91% | inhibition in vivo at 30 mg/kg (C57BL/6J mice; po, 2 h, PO 30 mg/kg): 70%; inhibition in vivo at 30 mg/kg (C57BL/6J mice; sc, 1 h, SC 30 mg/kg): 53%
CC(NC(=O)N(O)C1CCN(C)CC1)c1ccc(C(F)F)c(Cl)c1Cl (stereo not shown) [Compound H0621, 3-(1-(2,3-dichloro-4-(difluoromethyl)phenyl)ethyl)-1-hydroxy-1-(1-methylpiperidin-4-yl)urea] | > 30000 nM | High H High M | 2 nM | 3896 | High H High M | – | Mouse Food Intake, result in words (C57BL/6J mice; i.p., dose not given): No Effect
CN1CCC(N(O)C(=O)NC(CC2CC2)c2ccc(-c3cnccn3)c(Cl)c2Cl)CC1 (stereo not shown) [Compound H0761, 3-(2-cyclopropyl-1-(2,3-dichloro-4-(pyrazin-2-yl)phenyl)ethyl)-1-hydroxy-1-(1-methylpiperidin-4-yl)urea] | 0.2 nM | High H High M | 3 nM | 2907 | High H High M | 63% | Mouse Food Intake, result in words (C57BL/6J mice; PO, dose not given): NSE; Mouse Food Intake, result in words (C57BL/6J mice; PO, fasted mice, dose not given): No activity; FI increase (C57BL/6J mice; PO, fed mice): 215%; Mouse Food Intake, result in words (C57BL/6J mice; fed mice, route not clear): No activity
C#Cc1ccc(C(C)NC(=O)N(C)C2CCN(C)CC2)c(Cl)c1Cl (single isomer, unassigned) [Compound H0678, 3-(1-(2,3-dichloro-4-ethynylphenyl)ethyl)-1-methyl-1-(1-methylpiperidin-4-yl)urea] | 55 nM | Medium H Medium M | > 30000 nM | – | Medium H Medium M | 78% | Mouse Food Intake, result in words (C57BL/6J mice; PO, dose not given): no effect
C[C@H](NC(=O)N(C)C1CCN(C)C1)c1ccc(-c2cnccn2)c(Cl)c1Cl (single isomer, unassigned) [Compound H0862] | 3 nM | High | > 30000 nM | – | medium | – | Mouse Food Intake, result in words (C57BL/6J mice; PO (10 mg/kg) + ANA, mice, ANA dose not given): PO (10 mg/kg) + ANA: no activity in mice
CC(NC(=O)N(C)C1CCN(C)CC1)c1ccc(Cl)c(Cl)c1Cl (stereo not shown) [Compound H0381, 1-methyl-1-(1-methylpiperidin-4-yl)-3-(1-(2,3,4-trichlorophenyl)ethyl)urea] | 12 nM | Medium | > 30000 nM | – | Meidum | – | Mouse Food Intake, result in words (C57BL/6J mice; i.p., dose not given): IP: No effect
